Assay results published in ChEMBL document CHEMBL4184184, “Lead identification and optimization of bacterial glutamate racemase inhibitors” (Bioorg Med Chem, 2018).
≈ marks a conversion by molar mass, not a printed value. Calls of active or inactive are those of the source. The calls are words filed in the database; no cut-off is given here.

Legend:
[1] = system: Mycobacterium tuberculosis; experiment: Antibacterial activity against Mycobacterium tuberculosis H37Rv after 1 week by MABA; type: functional; conditions: 168 h
[2] = Cytotoxicity against mouse RAW264.7 cells assessed as growth inhibition at 25 uM after 48 hrs by MTT assay relative to control; type: cell-based; conditions: read-out: GI
[3] = system: Mycobacterium tuberculosis; experiment: Bacteriostatic activity against Mycobacterium tuberculosis H37Rv at 5 to 20 uM incubated up to 21 days; type: functional, organism-based
[4] = system: Mycobacterium tuberculosis; experiment: Ratio of MBC to MIC for Mycobacterium tuberculosis H37Rv; type: functional
[5] = system: Mycobacterium tuberculosis; experiment: Antibiofilm activity against Mycobacterium tuberculosis H37Rv at 10 ug/ml after 1 week; type: functional
[6] = system: Mycobacterium tuberculosis; experiment: Antibacterial activity against non replicating Mycobacterium tuberculosis H37Rv assessed as log reduction in bacterial count at 10 ug/ml incubated for 7 days followed by compound dilution measured after 4 weeks; type: functional
[7] = system: Mycobacterium tuberculosis; experiment: Antibacterial activity against Mycobacterium tuberculosis H37Rv after 1 week in presence of efflux pump inhibitor piperine by MABA; type: functional; conditions: 168 h
[8] = system: Mycobacterium tuberculosis; experiment: Antibacterial activity against Mycobacterium tuberculosis H37Rv after 1 week in presence of efflux pump inhibitor verapamil by MABA; type: functional; conditions: 168 h
[9] = target: T1, Glutamate racemase (Mycobacterium tuberculosis (strain ATCC 25618 / H37Rv)) (UniProt P9WPW9); experiment: Non-competitive inhibition of Mycobacterium tuberculosis glutamate racemase assessed as change in melting temperature by SYPRO orange dye based fluorescence assay
T1 sequence (whole entry): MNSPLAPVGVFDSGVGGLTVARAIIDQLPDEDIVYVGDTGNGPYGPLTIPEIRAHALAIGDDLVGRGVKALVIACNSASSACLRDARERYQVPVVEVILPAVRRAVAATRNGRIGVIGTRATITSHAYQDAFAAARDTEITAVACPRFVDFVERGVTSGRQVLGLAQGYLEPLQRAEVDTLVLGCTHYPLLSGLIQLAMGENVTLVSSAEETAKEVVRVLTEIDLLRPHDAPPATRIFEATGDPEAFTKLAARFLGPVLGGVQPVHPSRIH

[10] = system: Mycobacterium marinum; experiment: Antibacterial activity against Mycobacterium marinum ATCC BAA-535 infected in zebra fish assessed as log reduction in bacterial load at 10 mg/kg, po for 7 days; type: functional
[11] = target: T1, Glutamate racemase (Mycobacterium tuberculosis (strain ATCC 25618 / H37Rv)); experiment: Non-competitive inhibition of Mycobacterium tuberculosis glutamate racemase assessed as change in melting temperature in presence of substrate D-glutamate by SYPRO orange dye based fluorescence assay
[12] = system: Mycobacterium marinum; experiment: Antibacterial activity against Mycobacterium marinum ATCC BAA-535 infected in zebra fish assessed as log reduction in bacterial load at 5 mg/kg, po for 7 days; type: functional
[13] = system: Mycobacterium tuberculosis; experiment: Bacteriostatic activity against Mycobacterium tuberculosis H37Rv assessed as reduction in bacterial count at 25 uM incubated up to 21 days relative to control; type: functional
[14] = system: Mycobacterium tuberculosis; experiment: Bactericidal activity against Mycobacterium tuberculosis H37Rv incubated up to 21 days; type: functional, organism-based
[15] = target: T1, Glutamate racemase (Mycobacterium tuberculosis (strain ATCC 25618 / H37Rv)); experiment: Binding affinity to Mycobacterium tuberculosis glutamate racemase assessed as change in melting temperature by SYPRO orange dye based fluorescence assay

Row | SMILES | MIC [1] [µM] | inhibition at 48 h, 25 µM [2] [%] | MIC [7] [µM] | MIC [8] [µM] | also measured
1 | S=C(Nc1ccc(Cl)cc1)Nc1cccc(-c2nc3ccccc3s2)c1 | 2.09 (≈ 0.828 µg/mL) | 58.4 | – | – | –
2 | O=C(Nc1ccccc1)Nc1cccc(-c2nc3cc(C(F)(F)F)ccc3s2)c1 | 3.76 (≈ 1.55 µg/mL) | 40 | – | – | –
3 | FC(F)(F)c1ccc2sc(-c3cccc(NC(=S)NCc4ccccc4)c3)nc2c1 | 14.7 (≈ 6.52 µg/mL) | 96.1 | – | – | Activity [3]: Active; Ratio [4]: >4; log(activity) [5]: 1.8; log(activity) [6]: 2.1
4 | CC[C@@H](CO)NCCN[C@@H](CC)CO [ETHAMBUTOL] | 7.64 (≈ 1.56 µg/mL) | – | 3.82 | 3.82 | –
5 | Cc1ccc(NC(=S)Nc2cccc(-c3nc4ccccc4s3)c2)cc1 | 16.6 (≈ 6.24 µg/mL) | 17.5 | 16.6 | 8.29 | ΔTm [9]: 3.9 °C; Activity [3]: Active; log(activity) [10]: 3.5; Ratio [4]: >4; log(activity) [5]: 2; log(activity) [6]: 2.1; ΔTm [11]: 4.7 °C
6 | S=C(Nc1ccccc1)Nc1cccc(-c2nc3ccccc3s2)c1 | 69.2 (≈ 25 µg/mL) | 2.35 | – | – | –
7 | S=C(NCc1ccccc1)Nc1cccc(-c2nc3ccccc3s2)c1 | 66.6 (≈ 25 µg/mL) | 32.2 | 66.6 | 2.12 | –
8 | FC(F)(F)c1ccc2sc(-c3cccc(NC(=S)Nc4ccccc4)c3)nc2c1 | 14.7 (≈ 6.3 µg/mL) | 28.1 | 14.6 | 1.84 | –
9 | O=C(Nc1ccc([N+](=O)[O-])cc1)Nc1cccc(-c2nc3cc(C(F)(F)F)ccc3s2)c1 | 54.7 (≈ 25.1 µg/mL) | 99.2 | – | – | –
10 | O=C(Nc1ccc(Cl)cc1)Nc1cccc(-c2nc3ccccc3s2)c1 | 65.9 (≈ 25 µg/mL) | 30.1 | – | – | –
11 | NNC(=O)c1ccncc1 [ISONIAZID] | 0.72 (≈ 0.0987 µg/mL) | – | 0.72 | 0.72 | log(activity) [12]: 2.6; log(activity) [5]: 1; log(activity) [6]: 1.1
12 | O=C(Nc1ccc([N+](=O)[O-])cc1)Nc1cccc(-c2nc3ccccc3s2)c1 | 8.09 (≈ 3.16 µg/mL) | 42.1 | 8.09 | 2.04 | fold change (FC) [13]: >3; Activity [14]: Dose-dependent effect; Ratio [4]: <4; log(activity) [5]: 0.7; log(activity) [6]: 2.1
13 | O=[N+]([O-])c1ccc(NC(=S)Nc2cccc(-c3nc4ccccc4s3)c2)cc1 | 61.6 (≈ 25 µg/mL) | 98.2 | – | – | –
14 | COc1ccc(NC(=O)Nc2cccc(-c3nc4ccccc4s3)c2)cc1 | 33.3 (≈ 12.5 µg/mL) | 56.1 | – | – | –
15 | Cc1ccc(NC(=S)Nc2cccc(-c3nc4cc(C(F)(F)F)ccc4s3)c2)cc1 | 28.3 (≈ 12.5 µg/mL) | 97.1 | – | – | –
16 | O=C(Nc1ccc(F)cc1)Nc1cccc(-c2nc3ccccc3s2)c1 | – | – | – | – | ΔTm [15]: 3.3 °C
17 | N[C@H](CCC(=O)O)C(=O)O | – | – | – | – | ΔTm [15]: 2.4 °C
18 | O=[N+]([O-])c1ccc(NC(=S)Nc2cccc(-c3nc4cc(C(F)(F)F)ccc4s3)c2)cc1 | 52.7 (≈ 25 µg/mL) | 18.4 | 52.7 | 3.34 | –
19 | Fc1ccc(NC(=S)Nc2cccc(-c3nc4cc(C(F)(F)F)ccc4s3)c2)cc1 | 27.9 (≈ 12.5 µg/mL) | 76.3 | 27.9 | 7.01 | Activity [3]: Active; Ratio [4]: >4; log(activity) [6]: 2.1
20 | COc1ccc(NC(=O)Nc2cccc(-c3nc4cc(C(F)(F)F)ccc4s3)c2)cc1 | 56.4 (≈ 25 µg/mL) | 59.1 | – | – | –
21 | COc1c(N2C[C@@H]3CCCN[C@@H]3C2)c(F)cc2c(=O)c(C(=O)O)cn(C3CC3)c12 [MOXIFLOXACIN] | – | – | – | – | log(activity) [10]: 2.5; log(activity) [5]: 1.8; Activity [6]: Active
22 | FC(F)(F)c1ccc2sc(-c3cccc(NC(=S)Nc4ccc(Cl)cc4)c3)nc2c1 | 53.9 (≈ 25 µg/mL) | 97.3 | – | – | –
23 | Fc1ccc(NC(=S)Nc2cccc(-c3nc4ccccc4s3)c2)cc1 | 2.15 (≈ 0.816 µg/mL) | 98.2 | 2.15 | 2.15 | –
24 | O=C(Nc1ccccc1)Nc1cccc(-c2nc3ccccc3s2)c1 | 72.9 (≈ 25.2 µg/mL) | 97.2 | – | – | –
25 | Cc1ccc(NC(=O)Nc2cccc(-c3nc4ccccc4s3)c2)cc1 | 69.7 (≈ 25 µg/mL) | 31.2 | 69.7 | 2.17 | –
26 | Cc1ccc(NC(=O)Nc2cccc(-c3nc4cc(C(F)(F)F)ccc4s3)c2)cc1 | 58.6 (≈ 25 µg/mL) | 22.5 | – | – | –
27 | O=C(Nc1ccc(Cl)cc1)Nc1cccc(-c2nc3cc(C(F)(F)F)ccc3s2)c1 | 55.9 (≈ 25 µg/mL) | 45.7 | – | – | –
28 | O=C(Nc1ccc(F)cc1)Nc1cccc(-c2nc3cc(C(F)(F)F)ccc3s2)c1 | 57.9 (≈ 25 µg/mL) | 97.7 | – | – | –
29 | CO[C@H]1/C=C/O[C@@]2(C)Oc3c(C)c(O)c4c(O)c(c(/C=N/N5CCN(C)CC5)c(O)c4c3C2=O)NC(=O)/C(C)=C\C=C\[C@H](C)[C@H](O)[C@@H](C)[C@@H](O)[C@@H](C)[C@H](OC(C)=O)[C@@H]1C [RIFAMPIN] | 0.15 (≈ 0.123 µg/mL) | – | 0.15 | 0.15 | log(activity) [5]: 1.2; log(activity) [6]: 0.5
